Patent US20110212968A1, “PHENETHYLAMIDE DERIVATIVES AND THEIR HETEROCYCLIC ANALOGUES” (priority 2008, published 2011)

Legend:
human orexin-2 receptor = biological target: T1, human orexin-2 receptor (Homo sapiens, UniProt O43614); assay: Intracellular calcium measurement (FLIPR Tetra), orexin receptor antagonistic activity, OX2; type: cell-based; conditions: CHO cells expressing human orexin-2 receptor, 3 nM orexin-A, conditions B
T1 construct: expressed in transfected cells; host or cells: CHO (Chinese hamster ovary) cells, kept under G418 selection
T1 sequence (O43614 1-444): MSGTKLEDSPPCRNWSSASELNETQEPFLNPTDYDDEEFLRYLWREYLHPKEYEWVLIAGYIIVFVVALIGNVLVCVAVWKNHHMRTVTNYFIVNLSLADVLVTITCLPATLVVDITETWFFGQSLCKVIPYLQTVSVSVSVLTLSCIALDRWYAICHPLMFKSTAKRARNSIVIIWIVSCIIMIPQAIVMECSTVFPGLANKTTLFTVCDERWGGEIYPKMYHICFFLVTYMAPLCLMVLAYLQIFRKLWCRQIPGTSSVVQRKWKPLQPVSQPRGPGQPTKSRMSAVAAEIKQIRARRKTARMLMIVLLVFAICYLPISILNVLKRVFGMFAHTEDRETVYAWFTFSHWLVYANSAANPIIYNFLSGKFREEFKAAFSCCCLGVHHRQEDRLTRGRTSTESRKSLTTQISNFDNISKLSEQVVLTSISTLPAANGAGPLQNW
Experimental: (§1) The orexin receptor antagonistic activity of the compounds of formula (I) is determined in accordance with one of the following experimental methods.
(§2) Chinese hamster ovary (CHO) cells expressing the human orexin-1 receptor and the human orexin-2 receptor, respectively, are grown in culture medium (Ham F-12 with L-Glutamine) containing 300 μg/ml G418, 100 U/ml penicillin, 100 μg/ml streptomycin and 10% heat inactivated fetal calf serum (FCS). The cells are seeded at 20,000 cells/well into 384-well black clear bottom sterile plates (Greiner). The seeded plates are incubated overnight at 37° C. in 5% CO2.
(§3) Human orexin-A as an agonist is prepared as 1 mM stock solution in MeOH:water (1:1), diluted in HBSS containing 0.1% bovine serum albumin (BSA), NaHCO3: 0.375 g/l and 20 mM HEPES for use in the assay at a final concentration of 3 nM. Antagonists are prepared as 10 mM stock solution in DMSO, then diluted in 384-well plates, first in DMSO, then in HBSS containing 0.1% bovine serum albumin (BSA), NaHCO3: 0.375 g/l and 20 mM HEPES.
(§4) On the day of the assay, 50 μl of staining buffer (HBSS containing 1% FCS, 20 mM HEPES, NaHCO3: 0.375 g/l, 5 mM probenecid (Sigma) and 3 μM of the fluorescent calcium indicator fluo-4 AM (1 mM stock solution in DMSO, containing 10% pluronic) is added to each well.
(§5) The 384-well cell-plates are incubated for 50 min at 37° C. in 5% CO2 followed by equilibration at RT for 30-120 min before measurement.
(§6) Within the Fluorescent Imaging Plate Reader (FLIPR Tetra, Molecular Devices), antagonists are added to the plate in a volume of 10 μl/well, incubated for 10 min and finally 10 μl/well of agonist is added. Fluorescence is measured for each well at 1 second intervals, and the height of each fluorescence peak is compared to the height of the fluorescence peak induced by 3 nM orexin-A with vehicle in place of antagonist. For each antagonist, the IC50 value (the concentration of compound needed to inhibit 50% of the agonistic response) is determined and may be normalized using the obtained IC50 value of a on-plate reference compound (normalized values in Table 1 are indicated by an asterisk *). With the FLIPR Tetra, two different conditions (conditions A and conditions B) were used, differing in adjustment of pipetting speed and cell splitting regime. The calculated IC50 values of the compounds may fluctuate depending on the daily cellular assay performance. Fluctuations of this kind are known to those skilled in the art.

human orexin-1 receptor = biological target: T2, human orexin-1 receptor (Homo sapiens, UniProt O43613); assay: Intracellular calcium measurement (FLIPR Tetra), orexin receptor antagonistic activity, OX1; type: cell-based; conditions: CHO cells expressing human orexin-1 receptor, 3 nM orexin-A, conditions B
T2 construct: expressed in transfected cells; host or cells: CHO (Chinese hamster ovary) cells, kept under G418 selection
T2 sequence (O43613 1-425): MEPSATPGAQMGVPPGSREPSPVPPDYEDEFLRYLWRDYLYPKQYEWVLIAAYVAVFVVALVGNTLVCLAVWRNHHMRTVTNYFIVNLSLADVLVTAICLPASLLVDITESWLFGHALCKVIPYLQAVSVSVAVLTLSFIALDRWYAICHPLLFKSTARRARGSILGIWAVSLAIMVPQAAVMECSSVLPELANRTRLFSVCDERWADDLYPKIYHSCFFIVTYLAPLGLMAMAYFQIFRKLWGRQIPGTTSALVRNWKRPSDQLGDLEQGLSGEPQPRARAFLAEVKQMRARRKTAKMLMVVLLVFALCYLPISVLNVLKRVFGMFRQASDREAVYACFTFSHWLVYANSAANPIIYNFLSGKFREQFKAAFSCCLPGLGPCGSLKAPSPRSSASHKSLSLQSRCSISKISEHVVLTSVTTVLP
Experimental: as §1, §2, §3, §4, §5, §6

COc1ccc(CCN(C)C(=O)c2nc(N)sc2-c2cccc(C)c2)cc1OC [Example 104, 2-Amino-5-m-tolyl-thiazole-4-carboxylic acid [2-(3,4-dimethoxy-phenyl)-ethyl]-methyl-amide]
IC50 (human orexin-2 receptor): 0.005 µM | IC50 (human orexin-1 receptor): 0.405 µM

CCN(CCc1ccc(OC)c(OC)c1)C(=O)c1nc(N)sc1-c1cccc(C)c1 [Example 107, 2-Amino-5-m-tolyl-thiazole-4-carboxylic acid [2-(3,4-dimethoxy-phenyl)-ethyl]-ethyl-amide]
IC50 (human orexin-2 receptor): 0.002 µM | IC50 (human orexin-1 receptor): 0.041 µM

CCN(CCc1ccc(OC)c(OC)c1)C(=O)c1nc(C)sc1-c1ccc(C)c(C)c1 [Example 108, 5-(3,4-Dimethyl-phenyl)-2-methyl-thiazole-4-carboxylic acid [2-(3,4-dimethoxy-phenyl)-ethyl]-ethyl-amide]
IC50 (human orexin-2 receptor): 0.005 µM | IC50 (human orexin-1 receptor): 0.036 µM

CCCN(CCc1ccc(OC)c(OC)c1)C(=O)c1nc(C)sc1-c1cccc(F)c1 [Example 109, 5-(3-Fluoro-phenyl)-2-methyl-thiazole-4-carboxylic acid [2-(3,4-dimethoxy-phenyl)-ethyl]-propyl-amide]
IC50 (human orexin-2 receptor): 0.006 µM | IC50 (human orexin-1 receptor): 0.479 µM

CCCN(CCc1ccc(OC)c(OC)c1)C(=O)c1nc(N)sc1-c1cccc(C)c1 [Example 110, 2-Amino-5-m-tolyl-thiazole-4-carboxylic acid [2-(3,4-dimethoxy-phenyl)-ethyl]-propyl-amide]
IC50 (human orexin-2 receptor): 0.002 µM | IC50 (human orexin-1 receptor): 0.021 µM

CCCN(CCc1ccc(OC)c(OC)c1)C(=O)c1nc(C)sc1-c1ccc(C)c(C)c1 [Example 111, 5-(3,4-Dimethyl-phenyl)-2-methyl-thiazole-4-carboxylic acid [2-(3,4-dimethoxy-phenyl)-ethyl]-propyl-amide]
IC50 (human orexin-2 receptor): 0.002 µM | IC50 (human orexin-1 receptor): 0.018 µM

COc1ccc(CCN(CC(C)C)C(=O)c2nc(N)sc2-c2cccc(C)c2)cc1OC [Example 113, 2-Amino-5-m-tolyl-thiazole-4-carboxylic acid [2-(3,4-dimethoxy-phenyl)-ethyl]-isobutyl-amide]
IC50 (human orexin-2 receptor): 0.008 µM | IC50 (human orexin-1 receptor): 0.328 µM

COc1ccc(CCN(CC(F)(F)F)C(=O)c2nc(N)sc2-c2cccc(C)c2)cc1OC [Example 119, 2-Amino-5-m-tolyl-thiazole-4-carboxylic acid [2-(3,4-dimethoxy-phenyl)-ethyl]-(2,2,2-trifluoro-ethyl)-amide]
IC50 (human orexin-2 receptor): 0.004 µM | IC50 (human orexin-1 receptor): 0.149 µM

COc1ccc(CCN(CC(F)(F)F)C(=O)c2nc(C)sc2-c2ccc(C)c(C)c2)cc1OC [Example 120, 5-(3,4-Dimethyl-phenyl)-2-methyl-thiazole-4-carboxylic acid [2-(3,4-dimethoxy-phenyl)-ethyl]-(2,2,2-trifluoro-ethyl)-amide]
IC50 (human orexin-2 receptor): 0.006 µM | IC50 (human orexin-1 receptor): 0.119 µM

COc1ccc(CCN(C(=O)c2nc(N)sc2-c2cccc(C)c2)C2CC2)cc1OC [Example 122, 2-Amino-5-m-tolyl-thiazole-4-carboxylic acid cyclopropyl-[2-(3,4-dimethoxy-phenyl)-ethyl]-amide]
IC50 (human orexin-2 receptor): 0.002 µM | IC50 (human orexin-1 receptor): 0.015 µM

COc1ccc(CCN(C(=O)c2nc(C)sc2-c2ccc(C)c(C)c2)C2CC2)cc1OC [Example 123, 5-(3,4-Dimethyl-phenyl)-2-methyl-thiazole-4-carboxylic acid cyclopropyl-[2-(3,4-dimethoxy-phenyl)-ethyl]-amide]
IC50 (human orexin-2 receptor): 0.004 µM | IC50 (human orexin-1 receptor): 0.026 µM

COc1ccc(CCN(CCO)C(=O)c2nc(C)sc2-c2cccc(F)c2)cc1OC [Example 124, 5-(3-Fluoro-phenyl)-2-methyl-thiazole-4-carboxylic acid [2-(3,4-dimethoxy-phenyl)-ethyl]-(2-hydroxy-ethyl)-amide]
IC50 (human orexin-2 receptor): 0.082 µM | IC50 (human orexin-1 receptor): 1.47 µM

COc1ccc(CCN(CCO)C(=O)c2nc(C)sc2-c2ccc(C)c(C)c2)cc1OC [Example 126, 5-(3,4-Dimethyl-phenyl)-2-methyl-thiazole-4-carboxylic acid [2-(3,4-dimethoxy-phenyl)-ethyl]-(2-hydroxy-ethyl)-amide]
IC50 (human orexin-2 receptor): 0.004 µM | IC50 (human orexin-1 receptor): 0.17 µM
